Key:
[1] = molecular target: Mu-type opioid receptor (Homo sapiens) (UniProt P35372); conditions: Compound concentration 10.0 uM
[2] = molecular target: Serine/threonine-protein kinase Sgk3 (Homo sapiens) (UniProt Q96BR1); conditions: Compound concentration 1000.0 nM
[3] = molecular target: Uncharacterized serine/threonine-protein kinase SBK3 (Homo sapiens) (UniProt P0C264); conditions: Compound concentration 1000.0 nM
[4] = molecular target: Serine/threonine-protein kinase DCLK3 (Homo sapiens) (UniProt Q9C098); conditions: Compound concentration 1000.0 nM
[5] = molecular target: Fibroblast growth factor receptor 4 (Homo sapiens) (UniProt P22455); conditions: Compound concentration 1000.0 nM
[6] = molecular target: Myosin-IIIb (Homo sapiens) (UniProt Q8WXR4); conditions: Compound concentration 1000.0 nM
[7] = molecular target: Serine/threonine-protein kinase 32C (Homo sapiens) (UniProt Q86UX6); conditions: Compound concentration 1000.0 nM
[8] = molecular target: Serine/threonine-protein kinase 38-like (Homo sapiens) (UniProt Q9Y2H1); conditions: Compound concentration 1000.0 nM
[9] = molecular target: Proto-oncogene tyrosine-protein kinase receptor Ret (Homo sapiens) (UniProt P07949); conditions: Compound concentration 1000.0 nM
[10] = molecular target: Receptor tyrosine-protein kinase erbB-3 (Homo sapiens) (UniProt P21860); conditions: Compound concentration 1000.0 nM
[11] = molecular target: Serine/threonine-protein kinase 33 (Homo sapiens) (UniProt Q9BYT3); conditions: Compound concentration 1000.0 nM
[12] = molecular target: Peripheral plasma membrane protein CASK (Homo sapiens) (UniProt O14936); conditions: Compound concentration 1000.0 nM
[13] = molecular target: Mast/stem cell growth factor receptor Kit (Homo sapiens) (UniProt P10721); conditions: Compound concentration 1000.0 nM
[14] = molecular target: Serine/threonine-protein kinase OSR1 (Homo sapiens) (UniProt O95747); conditions: Compound concentration 1000.0 nM
[15] = molecular target: SRSF protein kinase 1 (Homo sapiens) (UniProt Q96SB4); conditions: Compound concentration 1000.0 nM
[16] = molecular target: Serine/threonine-protein kinase 25 (Homo sapiens) (UniProt O00506); conditions: Compound concentration 1000.0 nM
[17] = molecular target: Macrophage colony-stimulating factor 1 receptor (Homo sapiens) (UniProt P07333); conditions: Compound concentration 1000.0 nM
[18] = molecular target: Serine/threonine-protein kinase 32B (Homo sapiens) (UniProt Q9NY57); conditions: Compound concentration 1000.0 nM
[19] = molecular target: Misshapen-like kinase 1 (Homo sapiens) (UniProt Q8N4C8); conditions: Compound concentration 1000.0 nM
[20] = test system: Tyrosine-protein kinase ABL1 (Homo sapiens), P00519 [H396P]; conditions: Compound concentration 1000.0 nM
[21] = molecular target: Death-associated protein kinase 1 (Homo sapiens) (UniProt P53355); conditions: Compound concentration 1000.0 nM
[22] = molecular target: Tyrosine-protein kinase Fes/Fps (Homo sapiens) (UniProt P07332); conditions: Compound concentration 1000.0 nM
[23] = molecular target: Inhibitor of nuclear factor kappa-B kinase subunit alpha (Homo sapiens) (UniProt O15111); conditions: Compound concentration 1000.0 nM
[24] = molecular target: Cyclin-dependent kinase 4 (Homo sapiens) (UniProt P11802); conditions: Compound concentration 1000.0 nM
[25] = molecular target: Calcium/calmodulin-dependent protein kinase type II subunit delta (Homo sapiens) (UniProt Q13557); conditions: Compound concentration 1000.0 nM
[26] = molecular target: Casein kinase I isoform gamma-1 (Homo sapiens) (UniProt Q9HCP0); conditions: Compound concentration 1000.0 nM
[27] = molecular target: Receptor-type tyrosine-protein kinase FLT3 (Homo sapiens) (UniProt P36888); conditions: Compound concentration 1000.0 nM
[28] = molecular target: NUAK family SNF1-like kinase 2 (Homo sapiens) (UniProt Q9H093); conditions: Compound concentration 1000.0 nM
[29] = molecular target: T1, Alpha-1D adrenergic receptor (Homo sapiens) (UniProt P25100); conditions: Compound concentration 10.0 uM
T1 sequence (whole entry): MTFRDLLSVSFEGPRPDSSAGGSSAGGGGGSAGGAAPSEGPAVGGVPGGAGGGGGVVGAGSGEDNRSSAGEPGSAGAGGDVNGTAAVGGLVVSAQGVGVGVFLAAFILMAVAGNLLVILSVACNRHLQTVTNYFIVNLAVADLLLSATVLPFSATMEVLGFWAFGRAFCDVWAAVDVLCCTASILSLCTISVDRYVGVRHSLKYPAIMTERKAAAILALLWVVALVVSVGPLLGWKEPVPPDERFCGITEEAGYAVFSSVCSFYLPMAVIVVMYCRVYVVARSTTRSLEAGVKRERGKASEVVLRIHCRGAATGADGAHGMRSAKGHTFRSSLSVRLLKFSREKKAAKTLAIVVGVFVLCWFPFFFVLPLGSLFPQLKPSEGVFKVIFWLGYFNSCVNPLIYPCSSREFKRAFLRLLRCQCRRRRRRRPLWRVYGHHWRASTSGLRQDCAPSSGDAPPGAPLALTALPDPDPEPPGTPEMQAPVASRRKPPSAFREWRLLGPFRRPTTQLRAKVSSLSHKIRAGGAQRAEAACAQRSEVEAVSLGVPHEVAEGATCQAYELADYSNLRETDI

[30] = molecular target: Mitogen-activated protein kinase kinase kinase 2 (Homo sapiens) (UniProt Q9Y2U5); conditions: Compound concentration 1000.0 nM
[31] = test system: Hepatocyte growth factor receptor (Homo sapiens), P08581 [Y1235D]; conditions: Compound concentration 1000.0 nM
[32] = test system: Hepatocyte growth factor receptor (Homo sapiens), P08581 [M1250T]; conditions: Compound concentration 1000.0 nM
[33] = molecular target: Serine/threonine-protein kinase pim-1 (Homo sapiens) (UniProt P11309); conditions: Compound concentration 1000.0 nM
[34] = molecular target: Serine/threonine-protein kinase D1 (Homo sapiens) (UniProt Q15139); conditions: Compound concentration 1000.0 nM
[35] = molecular target: Serine/threonine-protein kinase PLK4 (Homo sapiens) (UniProt O00444); conditions: Compound concentration 1000.0 nM
[36] = molecular target: Beta-3 adrenergic receptor (Homo sapiens, UniProt P13945); conditions: Compound concentration 10.0 uM
[37] = molecular target: G protein-coupled receptor kinase 4 (Homo sapiens) (UniProt P32298); conditions: Compound concentration 1000.0 nM
[38] = molecular target: Fibroblast growth factor receptor 3 (Homo sapiens) (UniProt P22607); conditions: Compound concentration 1000.0 nM
Sequence of Fibroblast growth factor receptor 3 (Homo sapiens) (P22607 23-806 limits assumed): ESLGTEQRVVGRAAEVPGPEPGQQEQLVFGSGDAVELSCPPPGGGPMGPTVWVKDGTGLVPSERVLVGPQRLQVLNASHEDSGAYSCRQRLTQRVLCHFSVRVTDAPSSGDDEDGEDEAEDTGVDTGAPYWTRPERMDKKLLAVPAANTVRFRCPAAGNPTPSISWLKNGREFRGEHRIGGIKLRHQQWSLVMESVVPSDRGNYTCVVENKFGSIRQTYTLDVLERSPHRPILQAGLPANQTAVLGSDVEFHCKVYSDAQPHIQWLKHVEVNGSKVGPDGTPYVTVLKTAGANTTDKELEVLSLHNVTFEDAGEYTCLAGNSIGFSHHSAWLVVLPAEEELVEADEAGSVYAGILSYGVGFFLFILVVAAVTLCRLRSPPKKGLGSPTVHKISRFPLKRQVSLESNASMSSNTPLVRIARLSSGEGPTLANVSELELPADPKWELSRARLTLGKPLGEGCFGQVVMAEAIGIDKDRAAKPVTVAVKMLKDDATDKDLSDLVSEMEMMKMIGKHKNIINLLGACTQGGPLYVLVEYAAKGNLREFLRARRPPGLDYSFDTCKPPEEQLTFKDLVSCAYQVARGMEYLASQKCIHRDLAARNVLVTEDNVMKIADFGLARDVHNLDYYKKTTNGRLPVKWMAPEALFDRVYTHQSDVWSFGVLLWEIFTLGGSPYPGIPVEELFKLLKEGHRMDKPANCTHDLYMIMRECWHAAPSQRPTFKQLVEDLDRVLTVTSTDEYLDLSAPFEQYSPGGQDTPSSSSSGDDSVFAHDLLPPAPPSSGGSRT

Sequence of Serine/threonine-protein kinase 33 (Homo sapiens) (Q9BYT3 whole entry, looked up): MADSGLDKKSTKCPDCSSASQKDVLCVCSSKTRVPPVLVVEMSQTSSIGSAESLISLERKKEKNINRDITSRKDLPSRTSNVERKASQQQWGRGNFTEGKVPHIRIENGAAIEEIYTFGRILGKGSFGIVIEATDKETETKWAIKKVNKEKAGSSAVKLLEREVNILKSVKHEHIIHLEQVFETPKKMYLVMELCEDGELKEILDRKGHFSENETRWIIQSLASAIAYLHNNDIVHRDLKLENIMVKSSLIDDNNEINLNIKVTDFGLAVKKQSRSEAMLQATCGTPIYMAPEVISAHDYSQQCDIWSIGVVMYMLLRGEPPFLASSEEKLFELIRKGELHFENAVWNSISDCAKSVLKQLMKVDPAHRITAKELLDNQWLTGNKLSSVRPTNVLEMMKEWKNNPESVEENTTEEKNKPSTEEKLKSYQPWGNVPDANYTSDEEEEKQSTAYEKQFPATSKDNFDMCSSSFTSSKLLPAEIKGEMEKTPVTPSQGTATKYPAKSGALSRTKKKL
Sequence of Serine/threonine-protein kinase PLK4 (Homo sapiens) (O00444 whole entry): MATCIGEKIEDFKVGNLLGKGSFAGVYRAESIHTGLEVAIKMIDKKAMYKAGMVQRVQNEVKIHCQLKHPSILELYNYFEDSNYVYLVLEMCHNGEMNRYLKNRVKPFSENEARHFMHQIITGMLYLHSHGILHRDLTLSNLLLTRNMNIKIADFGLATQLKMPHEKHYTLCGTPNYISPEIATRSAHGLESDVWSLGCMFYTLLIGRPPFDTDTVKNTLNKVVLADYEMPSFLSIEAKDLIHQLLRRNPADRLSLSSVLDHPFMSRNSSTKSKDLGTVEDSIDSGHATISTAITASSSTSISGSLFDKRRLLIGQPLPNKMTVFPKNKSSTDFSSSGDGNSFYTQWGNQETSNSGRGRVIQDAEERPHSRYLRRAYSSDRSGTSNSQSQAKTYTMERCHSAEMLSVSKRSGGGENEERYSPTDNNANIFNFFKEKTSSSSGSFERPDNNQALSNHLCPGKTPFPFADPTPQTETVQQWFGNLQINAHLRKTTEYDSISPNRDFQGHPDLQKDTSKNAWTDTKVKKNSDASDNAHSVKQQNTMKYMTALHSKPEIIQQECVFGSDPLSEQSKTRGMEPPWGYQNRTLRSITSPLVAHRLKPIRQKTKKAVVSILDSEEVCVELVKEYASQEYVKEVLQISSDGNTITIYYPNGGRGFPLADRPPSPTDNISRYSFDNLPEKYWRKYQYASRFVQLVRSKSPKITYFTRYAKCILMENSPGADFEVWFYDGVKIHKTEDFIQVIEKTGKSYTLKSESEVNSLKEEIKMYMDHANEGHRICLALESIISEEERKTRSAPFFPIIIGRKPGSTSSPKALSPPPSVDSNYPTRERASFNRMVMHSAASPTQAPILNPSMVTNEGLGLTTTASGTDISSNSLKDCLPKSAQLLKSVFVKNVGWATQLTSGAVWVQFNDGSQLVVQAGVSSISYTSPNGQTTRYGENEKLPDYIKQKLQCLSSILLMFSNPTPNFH
Sequence of Fibroblast growth factor receptor 4 (Homo sapiens) (P22455 22-802 limits assumed): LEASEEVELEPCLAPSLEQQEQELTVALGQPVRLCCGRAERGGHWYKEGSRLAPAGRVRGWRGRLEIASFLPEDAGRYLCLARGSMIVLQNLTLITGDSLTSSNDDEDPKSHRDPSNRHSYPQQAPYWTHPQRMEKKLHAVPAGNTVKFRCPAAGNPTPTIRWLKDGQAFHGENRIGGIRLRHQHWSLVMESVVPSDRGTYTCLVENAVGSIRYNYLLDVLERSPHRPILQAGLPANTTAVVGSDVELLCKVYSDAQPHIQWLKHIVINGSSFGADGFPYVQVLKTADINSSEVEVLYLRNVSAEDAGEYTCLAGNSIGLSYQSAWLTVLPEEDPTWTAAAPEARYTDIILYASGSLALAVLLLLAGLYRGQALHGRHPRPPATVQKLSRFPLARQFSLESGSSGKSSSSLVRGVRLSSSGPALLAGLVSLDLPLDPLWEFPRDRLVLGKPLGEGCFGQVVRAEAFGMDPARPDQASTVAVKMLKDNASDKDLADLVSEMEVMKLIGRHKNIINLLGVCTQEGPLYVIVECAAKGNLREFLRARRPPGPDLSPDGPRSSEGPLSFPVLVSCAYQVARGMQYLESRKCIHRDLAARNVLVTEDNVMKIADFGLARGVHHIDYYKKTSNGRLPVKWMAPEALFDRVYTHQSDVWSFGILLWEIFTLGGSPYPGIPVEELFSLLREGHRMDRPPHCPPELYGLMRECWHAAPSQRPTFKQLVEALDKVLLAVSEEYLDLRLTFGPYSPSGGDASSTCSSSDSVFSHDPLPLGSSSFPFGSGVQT
Sequence of Tyrosine-protein kinase Fes/Fps (Homo sapiens) (P07332 whole entry): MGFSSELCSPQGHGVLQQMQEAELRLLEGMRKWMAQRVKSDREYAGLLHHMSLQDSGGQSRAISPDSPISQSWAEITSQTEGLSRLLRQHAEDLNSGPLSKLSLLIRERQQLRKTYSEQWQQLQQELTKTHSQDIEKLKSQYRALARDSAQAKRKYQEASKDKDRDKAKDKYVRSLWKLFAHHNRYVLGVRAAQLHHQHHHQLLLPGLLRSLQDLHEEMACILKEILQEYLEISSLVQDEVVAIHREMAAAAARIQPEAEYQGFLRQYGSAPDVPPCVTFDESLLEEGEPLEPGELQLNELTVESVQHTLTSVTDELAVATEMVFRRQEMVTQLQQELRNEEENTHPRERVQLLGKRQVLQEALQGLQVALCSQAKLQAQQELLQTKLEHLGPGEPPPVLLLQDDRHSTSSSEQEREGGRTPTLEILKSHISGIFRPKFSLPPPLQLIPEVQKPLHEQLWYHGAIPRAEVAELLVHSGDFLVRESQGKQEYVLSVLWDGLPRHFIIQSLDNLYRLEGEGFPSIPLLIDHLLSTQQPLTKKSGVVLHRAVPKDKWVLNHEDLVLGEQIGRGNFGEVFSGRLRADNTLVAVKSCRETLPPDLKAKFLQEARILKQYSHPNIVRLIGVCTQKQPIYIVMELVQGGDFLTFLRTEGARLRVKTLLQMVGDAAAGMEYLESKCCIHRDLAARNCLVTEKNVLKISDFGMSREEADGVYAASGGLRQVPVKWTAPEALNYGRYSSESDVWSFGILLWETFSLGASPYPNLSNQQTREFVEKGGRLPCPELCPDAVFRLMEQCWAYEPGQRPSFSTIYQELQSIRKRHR
Sequence of Mu-type opioid receptor (Homo sapiens) (P35372 whole entry): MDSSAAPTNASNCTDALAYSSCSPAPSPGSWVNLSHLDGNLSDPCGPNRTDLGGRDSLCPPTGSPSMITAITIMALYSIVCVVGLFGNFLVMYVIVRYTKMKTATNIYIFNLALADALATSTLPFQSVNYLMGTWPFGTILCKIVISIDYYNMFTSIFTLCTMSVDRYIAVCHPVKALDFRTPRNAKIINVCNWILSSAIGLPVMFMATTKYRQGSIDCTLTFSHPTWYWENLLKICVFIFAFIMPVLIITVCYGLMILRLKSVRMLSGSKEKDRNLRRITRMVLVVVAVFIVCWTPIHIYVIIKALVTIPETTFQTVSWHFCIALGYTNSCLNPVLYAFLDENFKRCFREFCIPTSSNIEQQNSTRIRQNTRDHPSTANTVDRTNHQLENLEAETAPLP
Sequence of Serine/threonine-protein kinase 32C (Homo sapiens) (Q86UX6 whole entry): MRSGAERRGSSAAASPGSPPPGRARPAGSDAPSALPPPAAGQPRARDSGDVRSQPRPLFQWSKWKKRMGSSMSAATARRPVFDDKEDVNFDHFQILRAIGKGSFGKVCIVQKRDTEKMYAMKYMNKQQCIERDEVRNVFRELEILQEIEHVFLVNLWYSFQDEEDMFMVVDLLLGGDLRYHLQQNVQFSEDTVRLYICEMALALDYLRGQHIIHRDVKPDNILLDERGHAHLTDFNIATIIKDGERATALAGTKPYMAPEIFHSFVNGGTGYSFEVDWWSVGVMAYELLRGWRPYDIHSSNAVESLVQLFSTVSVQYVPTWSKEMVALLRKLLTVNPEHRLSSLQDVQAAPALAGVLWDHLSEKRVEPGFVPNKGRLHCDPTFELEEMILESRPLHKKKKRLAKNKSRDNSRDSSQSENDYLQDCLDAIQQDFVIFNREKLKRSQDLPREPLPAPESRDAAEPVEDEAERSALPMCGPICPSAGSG

SMILES | inhibition [1] | residual activity [2] | residual activity [3] | residual activity [4] | residual activity [5] | residual activity [6] | residual activity [7] | residual activity [8] | residual activity [9] | residual activity [10] | residual activity [11] | residual activity [12] | residual activity [13] | residual activity [14] | residual activity [15] | residual activity [16] | residual activity [17] | residual activity [18] | residual activity [19] | residual activity [20] | further results
O=C(O)c1cc(-c2ccc(C3CCNCC3)cc2)c2ccc(-c3ccc(C(F)(F)F)cc3)cc2c1 [PPTN] | 19.3% | 100% | 75% | 100% | 100% | 69% | 100% | 100% | 90% | 85% | 100% | 100% | 100% | 100% | 86% | 100% | 100% | 100% | 98% | 62% | residual activity [21]: 100%; residual activity [22]: 100%; residual activity [23]: 87%; residual activity [24]: 100%; residual activity [25]: 100%; residual activity [26]: 100%; residual activity [27]: 90%; residual activity [28]: 100%; inhibition [29]: 33.5%; residual activity [30]: 100%; residual activity [31]: 100%; residual activity [32]: 86%; residual activity [33]: 100%; residual activity [34]: 100%; residual activity [35]: 80%; inhibition [36]: 65.2%; residual activity [37]: 72%; residual activity [38]: 100%
Cc1c(C(=O)O)cc(-c2ccc(C3CCNCC3)cc2)c2ccc(-c3ccc(C(F)(F)F)cc3)cc12 [PPTN-NC] | 12.6% | 100% | 80% | 100% | 100% | 75% | 100% | 100% | 99% | 86% | 100% | 100% | 100% | 100% | 100% | 100% | 100% | 100% | 100% | 72% | residual activity [21]: 100%; residual activity [22]: 100%; residual activity [23]: 98%; residual activity [24]: 100%; residual activity [25]: 100%; residual activity [26]: 100%; residual activity [27]: 100%; residual activity [28]: 100%; inhibition [29]: 13.3%; residual activity [30]: 100%; residual activity [31]: 100%; residual activity [32]: 97%; residual activity [33]: 100%; residual activity [34]: 100%; residual activity [35]: 96%; inhibition [36]: 57.5%; residual activity [37]: 100%; residual activity [38]: 100%
